Active and inactive are the calls of the source. No cut-off for these calls is given here.
What was measured:
[1] = target: Nicotinamide phosphoribosyltransferase (Homo sapiens, UniProt P43490); assay: Inhibition of recombinant human NAMPT preincubated for 5 mins followed by NAM addition measured for 15 mins by fluorescence based assay
Calf thymus DNA = assay: Binding affinity to calf thymus DNA assessed as decrease in fluorescence intensity at 100 to 200 uM by […] displacement assay; type: nucleic-acid assay; settings: Bos taurus; dose 100-200 µM
CT26 [2] = assay: Induction of DNA damage in mouse CT26 cells assessed as increase in gammaH2AX level at 0.1 to 10 uM measured after 12 hrs by immunoblot analysis; type: functional, cell-based; settings: dose 0.1-10 µM
CT26 [3] = assay: Antitumor activity against mouse CT26 cells assessed as inhibition of cell viability incubated for 72 hrs by SRB assay; type: functional, cell-based; settings: CT26, 72 h
B16 [4] = assay: Antitumor activity against mouse B16 cells assessed as inhibition of cell viability incubated for 72 hrs by SRB assay; type: functional, cell-based; settings: B16, 72 h
LN-18 [5] = assay: Antitumor activity against human LN-18 cells assessed as inhibition of cell viability incubated for 72 hrs by SRB assay; type: functional, cell-based; settings: LN-18, 72 h
[6] = Antitumor activity against […] Hepa1-6 cells assessed as inhibition of cell viability incubated for 72 hrs by SRB assay; type: functional, cell-based; settings: Mus musculus, Hepa1-6, 72 h
A549 = assay: Antitumor activity against human A549 cells assessed as inhibition of cell viability at 20 to 80 uM incubated for 48 hrs by CCK8 assay; type: functional, cell-based; settings: dose 20-80 µM
NCI-H1299 = assay: Antitumor activity against human NCI-H1299 cells assessed as inhibition of cell viability at 20 to 80 uM incubated for 48 hrs by CCK8 assay; type: functional, cell-based; settings: dose 20-80 µM
HCT-116 = assay: Antitumor activity against human HCT-116 cells assessed as inhibition of cell viability at 20 to 80 uM incubated for 48 hrs by CCK8 assay; type: functional, cell-based; settings: dose 20-80 µM
MDA-MB-231 = assay: Antitumor activity against human MDA-MB-231 cells assessed as inhibition of cell viability at 20 to 80 uM incubated for 48 hrs by CCK8 assay; type: functional, cell-based; settings: dose 20-80 µM
HepG2 [7] = assay: Antitumor activity against human HepG2 cells assessed as inhibition of cell viability at 20 to 80 uM incubated for 48 hrs by CCK8 assay; type: functional, cell-based; settings: dose 20-80 µM
PANC-1 = assay: Antitumor activity against human PANC-1 cells assessed as inhibition of cell viability at 20 to 80 uM incubated for 48 hrs by CCK8 assay; type: functional, cell-based; settings: dose 20-80 µM
CT26 [8] = assay: Induction of apoptosis in mouse CT26 cells incubated for 48 hrs by Annexin V-FITC/PI staining based flow cytometry; type: functional, cell-based; settings: dose 10-40 nM
[9] = Stability in mouse microsomes assessed as half life; type: ADME, Microsome
CT26 [10] = assay: Antitumor activity against mouse CT26 cells allografted in Balb/c mouse model at 2 mg/kg/day, ip for approximately 10 days; type: functional, organism-based; settings: time 10.0 day
[11] = Toxicity in Balb/c mouse model allografted with mouse CT26 cells assessed as body weight loss at 2 mg/kg/day, ip for approximately 10 days; type: organism-based; settings: in vivo, 240 h, time 10 day
[12] = Toxicity in C57BL/6 mouse model allografted with mouse B16 cells assessed as body weight loss at 2 mg/kg/day, ip for approximately 10 days; type: organism-based; settings: in vivo, 240 h, time 10 day
B16 [13] = assay: Antitumor activity against mouse B16 cells assessed as decrease in intracellular NAD level at 20 to 100 nM measured after 12 to 24 hrs by absorbance based assay; type: functional, cell-based; settings: dose 20-100 nM, time 12-24 hrs
HepG2 [14] = assay: Antitumor activity against human HepG2 cells assessed as decrease in intracellular NAD level measured for 24 hrs by absorbance based assay; type: functional, cell-based; settings: dose 0.032-100 µM
[15] = target: Nicotinamide phosphoribosyltransferase (Mus musculus) (UniProt Q99KQ4); assay: Binding affinity to NAMPT in mouse B16 cells assessed as increase in thermal stabilization incubated for 3 hrs followed by heating at 46 to 71 degreeC for 3 mins by CETSA assay; type: cell-based; settings: time 183.0 min
B16 [16] = assay: Induction of DNA damage in mouse B16 cells assessed as increase in gammaH2AX level at 100 nM by immunofluorescence staining based analysis; type: functional, cell-based; settings: time 2-24 hrs
B16 [17] = assay: Induction of DNA damage in mouse B16 cells assessed as increase in gammaH2AX level at 100 nM incubated for 24 hrs by immunofluorescence staining based analysis; type: functional, cell-based
B16 [18] = assay: Induction of DNA damage in mouse B16 cells assessed as increase in gammaH2AX level at 0.1 uM incubated for 24 hrs by immunoblot analysis; type: functional, cell-based
B16 [19] = assay: Induction of DNA damage in mouse B16 cells assessed as increase in gammaH2AX level at 0.1 uM incubated for 24 hrs by immunofluorescence staining based analysis; type: functional, cell-based
B16 [20] = assay: Induction of DNA damage in mouse B16 cells assessed as increase in gammaH2AX level at 1 uM incubated for 24 hrs by immunoblot analysis; type: functional, cell-based
CT26 [21] = assay: Antitumor activity against mouse CT26 cells assessed as decrease in intracellular NAD level upto 10 uM measured for 6 hrs by absorbance based assay; type: functional, cell-based
CT26 [22] = assay: Induction of DNA damage in mouse CT26 cells assessed as increase in gammaH2AX level at 0.1 to 50 uM incubated for 6 hrs by immunoblot analysis; type: functional, cell-based; settings: dose 0.1-50 µM
B16 [23] = assay: Antitumor activity against mouse B16 cells assessed as decrease in intracellular NAD level at 20 nM measured after 12 to 24 hrs in presence of olaparib by absorbance based assay; type: functional, cell-based; settings: time 12-24 hrs
B16 [24] = assay: Induction of DNA damage in mouse B16 cells assessed as increase in gammaH2AX level at 20 nM incubated for 24 hrs in presence of olaparib by immunofluorescence staining based analysis; type: functional, cell-based
B16 [25] = assay: Induction of DNA damage in mouse B16 cells assessed as increase in gammaH2AX level upto 100 nM incubated for 24 hrs in presence of NMN by immunofluorescence staining based analysis; type: functional, cell-based
LN-18 [26] = assay: Antitumor activity against human LN-18 cells assessed as inhibition of cell viability at 6 nM incubated for 72 hrs in presence of sirtuins inhibitor by crystal violet staining based analysis; type: functional
LN-18 [27] = assay: Antitumor activity against human LN-18 cells assessed as inhibition of cell viability at 6 nM incubated for 72 hrs in presence of NNMT inhibitor by crystal violet staining based analysis; type: functional

Chain of Nicotinamide phosphoribosyltransferase (P43490 whole entry): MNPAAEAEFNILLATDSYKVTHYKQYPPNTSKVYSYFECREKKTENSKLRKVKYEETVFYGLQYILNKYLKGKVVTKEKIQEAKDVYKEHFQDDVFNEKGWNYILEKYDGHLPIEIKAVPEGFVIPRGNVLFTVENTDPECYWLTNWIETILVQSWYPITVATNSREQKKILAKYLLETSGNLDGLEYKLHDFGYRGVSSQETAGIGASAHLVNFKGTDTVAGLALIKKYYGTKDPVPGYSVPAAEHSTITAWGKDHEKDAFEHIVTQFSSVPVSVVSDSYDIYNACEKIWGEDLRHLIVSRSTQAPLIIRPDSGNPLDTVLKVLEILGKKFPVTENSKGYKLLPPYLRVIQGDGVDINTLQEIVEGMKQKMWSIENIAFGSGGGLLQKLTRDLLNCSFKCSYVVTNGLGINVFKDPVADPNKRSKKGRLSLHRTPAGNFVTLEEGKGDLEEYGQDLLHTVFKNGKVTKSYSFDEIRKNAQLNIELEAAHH
Chain of Nicotinamide phosphoribosyltransferase (Mus musculus) (Q99KQ4 whole entry, looked up): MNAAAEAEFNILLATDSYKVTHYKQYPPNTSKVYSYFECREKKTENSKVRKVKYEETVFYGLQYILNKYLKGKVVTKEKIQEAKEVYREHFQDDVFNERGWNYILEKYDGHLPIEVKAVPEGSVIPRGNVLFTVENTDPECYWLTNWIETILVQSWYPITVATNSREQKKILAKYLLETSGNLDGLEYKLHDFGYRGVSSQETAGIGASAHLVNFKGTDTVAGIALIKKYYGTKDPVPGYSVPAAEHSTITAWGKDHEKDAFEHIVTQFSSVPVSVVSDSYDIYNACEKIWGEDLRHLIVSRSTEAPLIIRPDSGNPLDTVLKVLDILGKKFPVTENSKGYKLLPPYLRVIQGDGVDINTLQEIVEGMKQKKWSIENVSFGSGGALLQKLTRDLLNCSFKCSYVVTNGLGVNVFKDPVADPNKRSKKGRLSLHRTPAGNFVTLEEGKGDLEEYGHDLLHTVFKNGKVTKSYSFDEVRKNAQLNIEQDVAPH

## O=C(/C=C/c1cccnc1)NCCCCC1CCN(C(=O)c2cccc(N(CCCl)CCCl)c2)CC1
[1]
  IC50: 0.00015 µM
Calf thymus DNA
  Activity: Active
CT26 [2]
  Activity: Active
CT26 [3]
  IC50: 0.0218 µM
B16 [4]
  IC50: 0.0524 µM
LN-18 [5]
  IC50: 0.0007 µM
[6]
  IC50: 0.0051 µM
A549
  inhibition: Active
NCI-H1299
  inhibition: Active
HCT-116
  inhibition: Active
MDA-MB-231
  inhibition: Active
HepG2 [7]
  inhibition: Active
PANC-1
  inhibition: Active
CT26 [8]
  Activity: Dose-Dependent Effect
[9]
  half-life: 56.1 s
CT26 [10]
  Activity: Active
[11]
  Activity: Non-Toxic
[12]
  Activity: Non-Toxic
B16 [13]
  Activity: Active
HepG2 [14]
  Activity: Dose-Dependent Effect
[15]
  Activity: Active
B16 [16]
  Activity: Dose-Dependent Effect
B16 [17]
  Activity: Active
B16 [18]
  Activity: Active
B16 [19]
  Activity: Active
B16 [20]
  Activity: Active
CT26 [21]
  Activity: Active
CT26 [22]
  Activity: Active
B16 [23]
  Activity: inactive
B16 [24]
  Activity: Active
B16 [25]
  Activity: inactive
LN-18 [26]
  Activity: Active
LN-18 [27]
  Activity: Active

## O=C(/C=C/c1cccnc1)NCCCCC1CCN(C(=O)c2ccccc2)CC1 [DAPORINAD]
CT26 [3]
  IC50: 0.0349 µM
B16 [4]
  IC50: 0.219 µM
LN-18 [5]
  IC50: 0.0336 µM
[6]
  IC50: 0.0336 µM
CT26 [21]
  Activity: Active
CT26 [22]
  Activity: Active

## O=C(O)CCCc1ccc(N(CCCl)CCCl)cc1 [CHLORAMBUCIL]
CT26 [3]
  IC50: > 1 µM
B16 [4]
  IC50: > 1 µM
LN-18 [5]
  IC50: > 1 µM
[6]
  IC50: > 1 µM

## O=C(/C=C/c1cccnc1)NCCCCC1CCN(C(=O)c2ccccc2N(CCCl)CCCl)CC1
[1]
  IC50: 0.00016 µM
CT26 [2]
  Activity: Active
CT26 [3]
  IC50: 0.0538 µM
B16 [4]
  IC50: 0.0725 µM
LN-18 [5]
  IC50: 0.0313 µM
[6]
  IC50: 0.0516 µM

## O=C(/C=C/c1cccnc1)OCCCCC1CCN(C(=O)c2cccc(N(CCCl)CCCl)c2)CC1
[1]
  IC50: 0.0039 µM

## O=C(/C=C/c1cccnc1)NCCCCC1CCN(C(=O)c2ccc(N(CCCl)CCCl)cc2)CC1
[1]
  IC50: 0.0011 µM

## O=C(/C=C/c1cccnc1)OCCCCC1CCN(C(=O)c2ccccc2N(CCCl)CCCl)CC1
[1]
  IC50: 0.0013 µM

## O=C(/C=C/c1cccnc1)OCCCCC1CCN(C(=O)c2ccc(N(CCCl)CCCl)cc2)CC1
[1]
  IC50: 0.0375 µM

From ChEMBL document CHEMBL5356961 (J Med Chem, 2023)
